Test results from patent US9937250B2, “Immunogenic tumor associated stromal cell antigen peptides and methods of their use” (University of Pittsburgh—Of the Commonwealth System of …, priority 2011, dated 2018).
Where no end group is shown, it is not given here.

How the values were obtained:
[1] = test system: CD8+ T cells from HLA-A2+ normal donors or HLA-A2+ melanoma patients; test: In vitro sensitization of human CD8+ T cells with TASA peptide-pulsed autologous DC, IFN-γ ELISA against peptide-pulsed T2 cells; format: cell-based
Description: The indicated peptides were pulsed onto autologous DC and used to prime and boost CD8^+ T cells isolated from the peripheral blood of eight normal HLA-A2^+ donors or ten HLA-A2^+ patients with melanoma. Seven days after the primary in vitro sensitization (IVS) (melanoma patients) or a secondary IVS boost (normal donors), T cells were analyzed for their reactivity against HLA-A2^+ T2 cells pulsed with the relevant peptide vs. the negative control HIV-nef190-198 peptide. After 24 hours of co-culture, cell-free supernatants were analyzed for levels of secreted IFN-γ using a commercial ELISA. Data are reported in Bar and Whisker plots, with p-values provided for paired pre- versus post-IVS data from normal donors and patients. In addition, p<0.05 was detected for MEL-Post versus ND-Post for the following peptides: DLK1 (309), NG2 (770), NG2 (2238), PDGFRβ (891) and RGS5 (5).
In vitro assessment of human CD8^+ T cell responses against TASA- or TAA-derived peptides. Peripheral blood mononuclear cells (PBMC) were obtained by venipuncture or leukapheresis from HLA-A2^+ normal donors or HLA-A2^+ melanoma patients with written consent under IRB-approved protocols (Table 3). CD8^+ T cells were then isolated by MACS (Miltenyi Biotec, Auburn, Calif.) and either not stimulated or stimulated with autologous, TASA peptide-pulsed DC as previously described (Tatsumi et al., Cancer Res., 63:4481-4489, 2003). Normal donor T cells were stimulated with TASA peptide-pulsed DC twice on a weekly schedule, with responder T cells harvested for analysis of their specificity 5 days after the booster stimulation (i.e. day 12 of T cell-DC co-culture). Melanoma patient CD8^+ T cells were analyzed after a single round of stimulation with TASA peptide-pulsed, autologous DC (i.e. day 5 of T cell-DC co-culture) as indicated. For DC-based stimulations, DC were pulsed with an equimolar (1 μM each) pool of the TASA peptides (Table 4) for 4 h at 37° C. at 5% CO2 tension. These antigen-loaded DC were then used to stimulate autologous CD8^+ T cells at a T cell-to-DC ratio of 10:1 to generate a bulk population of responder T cells. T cells were maintained in IMDM media supplemented with 10% human AB serum, 100 U/ml penicillin, […], 10 mM L-glutamine and MEM non-essential amino acids (all reagents from Invitrogen, except human AB serum that was purchased from Sigma-Aldrich, St. Louis, Mo.). Responder CD8^+ T cells were analyzed for reactivity against control (HLA-A2^+) T2 cells or T2 cells pulsed with individual TASA or TAA peptides (1 μM for 4 h at 37° C.) at a CD8^+ T cell-to-T2 cell ratio of 5:1 for 24 h. Harvested cell-free supernatants were consequently assessed for hIFN-γ content using a specific ELISA (BD Biosciences, San Diego, Calif.) with a lower detection limit of 4.7 pg/ml.
CD8^+ T cells from HLA-A2^+ normal donors or HLA-A2^+ melanoma patients recognize TASA-derived peptides in vitro. To assess whether the TASA-derived peptides identified in the HHD tumor model were also capable of being recognized by human CD8^+ T cells, IVS was performed using T cells isolated from the peripheral blood of HLA-A2^+ donors or HLA-A2^+ patients with melanoma. DC were pulsed with peptides derived from a given TASA for 4 h at 37° C., then washed and used as stimulator cells for autologous CD8^+ T cells. In cases where more than one peptide existed for a given protein, DC were pulsed with an equimolar (10 μM) mixture of each peptide. Two rounds of IVS using TASA for normal donors and a single-round of IVS using TASA for melanoma patients was applied. HLA-A2^+ normal donors (FIG. 4; Tables 4, 5A and 5B) and melanoma patients (FIG. 4; Tables 4, 5A and 5B) were each capable of recognizing many of the TASA-derived peptides.

MC38 colon carcinoma = test: MC38 protection (prophylactic vaccination) model; format: in vivo, HHD mice; parameters: key to Anti-tumor efficacy in MC38 protection model: +/-, p < 0.05 versus DC only for 2 consecutive time points; - not significant at any time point analyzed; conditions: for Anti-tumor efficacy in MC38 protection model: DC.IL12 pulsed with a pool of 1 or more peptides derived from the indicated TBVA, vaccination d-14, d-7; for Protection against HLA-A2neg MC38 tumor challenge: immunization days -14 and -7, tumor challenge day 0 (FIG. 9B)
Text: FIGS. 9A-9B show a series of graphs illustrating induction of specific/protective CD8^+ T cells reactive against TASA as a consequence of DC/peptide-based vaccination. In FIG. 9A, HHD mice (five animals/cohort) were vaccinated twice (d-14, d-7) subcutaneously with PBS or with isologous DC.IL12 pulsed with PBS or synthetic peptides (Table 6) derived from the indicated TASA. In cases where more than 1 peptide was identified for a given target antigen, an equimolar pool of the indicated peptides (each 10 μM) was pulsed onto DC.IL12 and used for vaccination in the relevant cohort. One week after the second immunization, spleens were harvested and splenic CD8^+ T cells isolated using MACS-beads (Miltenyi). T cells were stimulated in vitro for 48 h using the HLA-A2^+ T2 cell line pulsed with relevant TASA vs. irrelevant HIV-nef190-198 ([…]; ref. 24) peptides. Cell-free supernatants were then recovered and IFN-γ levels by ELISA. Data are reported as mean+/−SD for triplicate ELISA determinations, and are representative of 3 independent experiments performed. *p<0.05 vs. HIV-nef control peptide responses. In FIG. 9B, HHD mice were vaccinated twice (days −14 and −7; right flank) subcutaneously with PBS or with isologous DC.IL12 pulsed with PBS or synthetic TASA peptides as indicated in FIG. 1A. In cases where more than 1 peptide is identified for a given target antigen, an equimolar pool of the indicated peptides (each 10 μM) was pulsed onto DC.IL12 and used for vaccination in the relevant cohort. One week after the booster vaccine (i.e. day zero), animals were challenged subcutaneously on their left flank with 2×10^6 MC38 colon carcinoma cells. Tumor growth was then monitored every 3-4 days through day 24. All data represent mean tumor area (in mm^2)+/−SD determined from 5 mice/cohort, and are representative of three independent experiments performed. *p<0.05 versus DC only on the indicated days.
Vaccine Experiments. For prophylactic experiments, HHD mice were immunized subcutaneously on the right flank with 100 μl PBS or PBS containing 10^6 syngenic DC.IL12 cells that had been untreated or pre-pulsed for 4 h at 37° C. with 10 μM synthetic peptide(s). Immunizations occurred on days −14 and −7, with mice subsequently receiving injections of MC38 (2×10^6) tumor cells in the left flank on d0. In all cases, treatment groups contained 5 mice per cohort. For analysis of tumor cellular composition in repeat experiments, MC38 tumors were isolated by surgical resection 10 days after tumor inoculation and prepared for fluorescence imaging, as described below. […] Mice were then untreated or treated with control, syngenic DC.IL12 or DC.IL12 (10^6 cells injected subcutaneously in the left flank on days 7 and 14) pulsed with synthetic TBVA peptides. In some assays, as indicated, in vivo antibody depletions (on days 6, 13 and 20 post-tumor inoculation to assess early involvement or on days 60 and 67 or 180 and 187 to assess late involvement) of protective CD4^+ T cells or CD8^+ T cells were performed and monitored as previously described (Zhao et al., Mol Ther., 19:805-814, 2011). In all cases, tumor size (area) was monitored every 3-4 days and is reported as mean+/−SD in mm^2.
The DLK1, EphA2, HBB, NG2, NRP1, NRP2, PDGFRβ, PSMA, RGS5, TEM1, VEGFR1 and VEGFR2 antigens were expressed in situ by blood vessel cells in the MC38 colon carcinoma TME (FIG. 14). Protection of HHD mice against a challenge with HLA-A2^neg MC38 tumor cells injected subcutaneously on day zero was assayed with immunization with TBVA-derived peptides on days −14 and −7. […]

| Substance | Specific CD8+ T cell Production of IFN-γ in Response to TASA ([1]; donor Mel1, melanoma patient) | Specific CD8+ T cell Production of IFN-γ in Response to TASA ([1]; donor Mel2, melanoma patient) | Specific CD8+ T cell Production of IFN-γ in Response to TASA ([1]; donor Mel4, melanoma patient) | Specific CD8+ T cell Production of IFN-γ in Response to TASA ([1]; donor Mel5, melanoma patient) | Anti-tumor efficacy in MC38 protection model (MC38 colon carcinoma) | Protection against HLA-A2neg MC38 tumor challenge (MC38 colon carcinoma) | Specific CD8+ T cell Production of IFN-γ in Response to TASA ([1]; donor Mel8, melanoma patient) | Specific CD8+ T cell Production of IFN-γ in Response to TASA ([1]; donor ND2, normal donor) | Specific CD8+ T cell Production of IFN-γ in Response to TASA ([1]; donor ND4, normal donor) | Specific CD8+ T cell Production of IFN-γ in Response to TASA ([1]; donor Mel6, melanoma patient) | Specific CD8+ T cell Production of IFN-γ in Response to TASA ([1]; donor Mel7, melanoma patient) | Specific CD8+ T cell Production of IFN-γ in Response to TASA ([1]; donor ND5, normal donor) |
| --- | --- | --- | --- | --- | --- | --- | --- | --- | --- | --- | --- | --- |
| NRP2: equimolar pool of the three NRP2-derived peptides (214-222, 328-336, 436-444), pulsed onto DC or DC.IL12 (chain 1 DIWDGIPHV; chain 2 YLQVDLRFL; chain 3 NMLGMLSGL; also: equimolar pool of three peptides; listed as Homo sapiens) | + (Human responses were designated as + if T cell reactivity against T2 cells presenting the indicated peptide (IFN-γ ELISA) was >30 pg/ml and more than 2 fold higher than reactivity versus T2 cells pulsed with the negative control HIV-nef190-198 peptide) | + (Human responses were designated as + if T cell reactivity against T2 cells presenting the indicated peptide (IFN-γ ELISA) was >30 pg/ml and more than 2 fold higher than reactivity versus T2 cells pulsed with the negative control HIV-nef190-198 peptide) | + (Human responses were designated as + if T cell reactivity against T2 cells presenting the indicated peptide (IFN-γ ELISA) was >30 pg/ml and more than 2 fold higher than reactivity versus T2 cells pulsed with the negative control HIV-nef190-198 peptide) | + (Human responses were designated as + if T cell reactivity against T2 cells presenting the indicated peptide (IFN-γ ELISA) was >30 pg/ml and more than 2 fold higher than reactivity versus T2 cells pulsed with the negative control HIV-nef190-198 peptide) | - | minimal protection |  |  |  |  |  |  |
| PDGFRβ: PDGFRβ-derived peptide 890-898 pulsed onto DC or DC.IL12 (ILLWEIFTL; listed as Homo sapiens) |  |  |  |  |  | effective in preventing HLA-A2^neg MC38 tumor establishment or they resulted in the regression of tumors | + (Human responses were designated as + if T cell reactivity against T2 cells presenting the indicated peptide (IFN-γ ELISA) was >30 pg/ml and more than 2 fold higher than reactivity versus T2 cells pulsed with the negative control HIV-nef190-198 peptide) | + (Human responses were designated as + if T cell reactivity against T2 cells presenting the indicated peptide (IFN-γ ELISA) was >30 pg/ml and more than 2 fold higher than reactivity versus T2 cells pulsed with the negative control HIV-nef190-198 peptide) | + (Human responses were designated as + if T cell reactivity against T2 cells presenting the indicated peptide (IFN-γ ELISA) was >30 pg/ml and more than 2 fold higher than reactivity versus T2 cells pulsed with the negative control HIV-nef190-198 peptide) |  |  |  |
| PSMA: PSMA-derived peptide 441-450 pulsed onto DC or DC.IL12 (LLQERGVAYI; listed as Homo sapiens) |  |  | + (Human responses were designated as + if T cell reactivity against T2 cells presenting the indicated peptide (IFN-γ ELISA) was >30 pg/ml and more than 2 fold higher than reactivity versus T2 cells pulsed with the negative control HIV-nef190-198 peptide) |  | - | minimal protection |  |  |  | + (Human responses were designated as + if T cell reactivity against T2 cells presenting the indicated peptide (IFN-γ ELISA) was >30 pg/ml and more than 2 fold higher than reactivity versus T2 cells pulsed with the negative control HIV-nef190-198 peptide) |  |  |
| VEGFR1: VEGFR1-derived peptide 770-778 pulsed onto DC or DC.IL12 (TLFWLLLTL; listed as Homo sapiens) |  |  | + (Human responses were designated as + if T cell reactivity against T2 cells presenting the indicated peptide (IFN-γ ELISA) was >30 pg/ml and more than 2 fold higher than reactivity versus T2 cells pulsed with the negative control HIV-nef190-198 peptide) |  | +/- (+/-, p < 0.05 versus DC only for 2 consecutive time points) | minimal protection |  |  |  | + (Human responses were designated as + if T cell reactivity against T2 cells presenting the indicated peptide (IFN-γ ELISA) was >30 pg/ml and more than 2 fold higher than reactivity versus T2 cells pulsed with the negative control HIV-nef190-198 peptide) | + (Human responses were designated as + if T cell reactivity against T2 cells presenting the indicated peptide (IFN-γ ELISA) was >30 pg/ml and more than 2 fold higher than reactivity versus T2 cells pulsed with the negative control HIV-nef190-198 peptide) | + (Human responses were designated as + if T cell reactivity against T2 cells presenting the indicated peptide (IFN-γ ELISA) was >30 pg/ml and more than 2 fold higher than reactivity versus T2 cells pulsed with the negative control HIV-nef190-198 peptide) |
